The source of these data is publication PMC11549390, “Activity, structure, and diversity of Type II proline-rich antimicrobial peptides from insects” (EMBO Reports, 2024).

Read-outs that look alike come from different tables or passages of the source. No end group written: not given here.

The test system of assay [1] is E. coli strain BL21 cells transformed with the pRXG(UGA) plasmid. Nature of the assay: Stop codon readthrough assay (RFP-UGA-GFP reporter, drop-diffusion). The assay is classed as cell-based, Escherichia coli. Particulars: subinhibitory concentrations, M9 agar, 2 µL of 2 mM peptide, 37 °C 16 h, three independent experiments. The method, then: Figure 4 Newly identified PrAMPs cause stop codon readthrough in bacterial cells. Top: In-frame fused genes encoding the reporter proteins RFP and GFP in the pRXG plasmid (Monk et al, [2017]) are separated by an UGA stop codon. […] Api and the modified Api137 (Berthold et al, [2013]) were spotted for comparison. […] Shown are representative plates from three independent experiments.
Stop codon readthrough activity of PrAMPs was determined as previously described (Mangano et al, [2023]). Briefly, E. coli strain BL21 cells transformed with the pRXG(UGA) plasmid (Monk et al, [2017]) were plated as described above for the drop-diffusion test, except that the bacterial lawn was formed on M9 medium/agar plates supplemented with 50 µg/ml of Kan and 0.2% glucose. Peptide solutions (2 µL of 2 mM stocks) were applied. The plates were incubated at 37 °C for 16 h and imaged in Cy2 (GFP) or Cy3 (RFP) channels using the BioRad ChemiDoc Touch imaging system. The images were processed using Image Lab software (BioRad).

Assay [2] relates to K. pneumoniae AR-0112. The assay is classed as cell-based, Klebsiella pneumoniae. On the procedure: (§1) The minimal inhibitory concentration (MIC) test for the E. coli laboratory strain BL21 and the K. pneumoniae multi-drug-resistant clinical strain AR-0112 (CDC and FDA Antibiotic Resistance Isolate Bank) was performed using the broth microdilution method, adapted from a previously described procedure (Wiegand et al, [2008]). The MIC tests were conducted either in 33% Tryptic Soy Broth (TSB) (Berthold et al, [2013]), or in RPMI/Serum (prepared by combining Roswell Park Memorial Institute medium 1640, Mueller Hinton Broth, and fetal bovine serum in the proportion 100:5:20, v/v/v) (Belanger et al, [2020]).

In assay [3] the test system is E. coli BL21. In kind it is cell-based, Escherichia coli. The method, then: as §1

With `O=C(N[C@H](CO)[C@H](O)c1ccc([N+](=O)[O-])cc1)C(Cl)Cl` [chloramphenicol], the “Induction of stop codon readthrough (GFP halo)” value in assay [1] is listed as “does not induce stop codon readthrough”.
Take AHKPVYVPPPRPPHPRL [Nme2]: the minimum inhibitory concentration (MIC) (usually the smallest concentration in the dilution series that meets the test's criterion for growth inhibition) in assay [2] (AR-0112) was 2 µM.
With ALNRPVYVPPPRPPHPRL [Mge1], the MIC in assay [2] (AR-0112) stood at 1 µM.
Regarding GKPNKPRPAPIKPRPPHPRL [Pdi2], the MIC in assay [3] (BL21) amounted to 0.25 µM. In other words, the sub-micromolar range.
For the molecule GNRPNIPTYIPRPRPPHPRL [Fva1], the minimal inhibitory concentration (MIC) came out at 0.125 µM in assay [3] (E. coli BL21, 33% TSB, broth microdilution, performed in triplicate); 0.25 µM in assay [3] (E. coli BL21, RPMI/Serum (RPMI 1640:Mueller Hinton Broth:fetal bovine serum 100:5:20), broth microdilution, performed in triplicate); 1 µM in assay [2] (K. pneumoniae AR-0112 (multi-drug-resistant clinical strain), 33% TSB, broth microdilution, performed in triplicate); 16 µM in assay [2] (K. pneumoniae AR-0112, RPMI/Serum (RPMI 1640:Mueller Hinton Broth:fetal bovine serum 100:5:20), broth microdilution, performed in triplicate).
In the case of GSKPVRPPPPIRPRPPHPRL [Btr1], the MIC in assay [3] (BL21) is 0.25 µM.
In turn, GSRLMYLPPPPCSPYLHF [Baf1] showed an MIC in assay [3] (BL21) above 64 µM.
NRPTYVPPPRPPHPRL [Ssp1]: in assay [2] (AR-0112), the MIC worked out at 2 µM.
SNKPRPQQVPPRPPHPRL [Vma1] returned an MIC in assay [2] (AR-0112) of 2 µM.
In assay [3] (BL21), SNRPVYIPPPRSPHPRL [Bvo1] returned a minimal inhibitory concentration (MIC) above 64 µM.
